Where a SMILES comes first, the peptide text is derived from it. [ ]: non-standard residue; d: D form. pS = N[C@@H](COP(=O)(O)O)C(=O)O
How the values were obtained:
[1] = tested on: 14-3-3ζ/Cdc25CpS216 interaction; assay: ITC: reinforcement of the 14-3-3ζ/Cdc25CpS216 interaction by CLR01; format: binding; conditions: 250 μM or 1.5 mM CLR01 vs no CLR01
[2] = Potentiometric pKa determination; format: physicochemical; conditions: determined potentiometrically
[3] = tested on: 14-3-3/C-Raf peptide; conditions: fluorescence polarization, labeled peptide; ref [31]; cited from earlier work
[4] = tested on: 14-3-3/Exoenzyme S peptide; conditions: fluorescence polarization, labeled peptide; ref [31]; cited from earlier work
[5] = molecular target: T1, 14-3-3ζ (Homo sapiens, UniProt P63104); assay: Isothermal titration calorimetry; format: binding
T1 sequence (P63104 1-230): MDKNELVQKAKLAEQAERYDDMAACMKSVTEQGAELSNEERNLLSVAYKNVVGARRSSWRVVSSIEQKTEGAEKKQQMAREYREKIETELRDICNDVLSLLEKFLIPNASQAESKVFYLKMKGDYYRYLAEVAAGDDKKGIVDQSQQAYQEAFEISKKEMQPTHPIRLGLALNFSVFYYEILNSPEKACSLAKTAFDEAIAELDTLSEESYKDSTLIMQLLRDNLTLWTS
T1 sequence (P30307 207-244 partner): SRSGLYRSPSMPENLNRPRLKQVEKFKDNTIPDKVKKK

[6] = tested on: 14-3-3 proteins with the potassium channel TASK3; conditions: ref [47]; cited from earlier work
[7] = tested on: TASK3 plasma membrane localization; conditions: ref [47]; cited from earlier work
[8] = tested on: Arf1/Arf1GAP; conditions: ref [48],[49]; cited from earlier work
[9] = tested on: 14-3-3 with the protein kinase C-Raf; conditions: ref [48]; cited from earlier work
[10] = tested on: 14-3-3 with the chloride channel CFTR; conditions: ref [18]; cited from earlier work
[11] = molecular target: T2, Cdc25CpS216 peptide (Homo sapiens, not fully specified; phosphoSer216, 1.5 mM CLR01); assay: ITC
T2 chain: T1 sequence (P30307 207-244 partner)

[12] = molecular target: T3, Cdc25CpS216 peptide (Homo sapiens, not fully specified; phosphoSer216, 250 μM CLR01); assay: ITC
T3 chain: T1 sequence (P30307 207-244 partner)

[13] = molecular target: T4, Cdc25CpS216 peptide (Homo sapiens, not fully specified; phosphoSer216); assay: ITC
T4 chain: T1 sequence (P30307 207-244 partner)

Molecule: O=P(O)(O)Oc1c2c(c(OP(=O)(O)O)c3c1C1CC3c3cc4c(cc31)C1CC4c3ccccc31)C1CC2c2cc3c(cc21)C1CC3c2ccccc21 [CLR01]
- reinforcement of the 14-3-3ζ/Cdc25CpS216 interaction [1]: 2–3 fold
- second pKa value of the hydrogen phosphate group [2]: 7.4
- effect on binding of C-Raf-derived peptide to 14-3-3 [3]: inhibited
- effect on binding of Exoenzyme S-derived peptide to 14-3-3 [4]: inhibited

Molecule: CC[C@H](C)[C@H](NC(=O)[C@@H](NC(=O)[C@H](CC(N)=O)NC(=O)[C@H](CC(=O)O)NC(=O)[C@H](CCCCN)NC(=O)[C@H](Cc1ccccc1)NC(=O)[C@H](CCCCN)NC(=O)[C@H](CCC(=O)O)NC(=O)[C@@H](NC(=O)[C@H](CCC(N)=O)NC(=O)[C@H](CCCCN)NC(=O)[C@H](CC(C)C)NC(=O)[C@H](CCCNC(=N)N)NC(=O)[C@@H]1CCCN1C(=O)[C@H](CCCNC(=N)N)NC(=O)[C@H](CC(N)=O)NC(=O)[C@H](CC(C)C)NC(=O)[C@H](CC(N)=O)NC(=O)[C@H](CCC(=O)O)NC(=O)[C@@H]1CCCN1C(=O)[C@H](CCSC)NC(=O)[C@H](COP(=O)(O)O)NC(=O)[C@@H]1CCCN1C(=O)[C@H](CO)NC(=O)[C@H](CCCNC(=N)N)NC(=O)[C@H](Cc1ccc(O)cc1)NC(=O)[C@H](CC(C)C)NC(=O)CNC(=O)[C@H](CO)NC(=O)[C@H](CCCNC(=N)N)NC(=O)[C@@H](N)CO)C(C)C)[C@@H](C)O)C(=O)N1CCC[C@H]1C(=O)N[C@@H](CC(=O)O)C(=O)N[C@@H](CCCCN)C(=O)N[C@H](C(=O)N[C@@H](CCCCN)C(=O)N[C@@H](CCCCN)C(=O)N[C@@H](CCCCN)C(=O)O)C(C)C [Cdc25CpS216] (H-SRSGLYRSP[pS]MPENLNRPRLKQVEKFKDNTIPDKVKKK-OH)
- Kd [5]: 5.16 µM

Molecule: COCC1CCC2C1=CC1(C)C(=C(C(C)C)C3CCOC31)C(OC1OC3COC(C)(C)OC3C(O)C1O)C(O)C2C (stereo not shown) [FC-THF]
- stabilization of the interaction of 14-3-3 proteins with TASK3 [6]: around 19 fold
- increase in plasma membrane localization [7]: 50%

Molecule: C[C@H]1CCC/C=C/[C@@H]2C[C@H](O)C[C@H]2[C@H](O)/C=C/C(=O)O1 [brefeldin A]
- stabilization factor of target protein complex Arf1/Arf1GAP [8]: 10

Molecule: COCC1O[C@H](O[C@@H]2C3=C(C(C)C)CC[C@]3(C)/C=C3\[C@@H](CC[C@]3(O)COC)[C@@H](C)[C@H]2O)C(O)C2OC3O[C@]12O[C@@]3(C)C1CO1 (stereo partly shown) [cotylenin A]
- stabilization factor of 14-3-3 binding with C-Raf [9]: 17

Molecule: C=CC(C)(C)OC[C@H]1O[C@H](O[C@@H]2C3=C([C@H](C)COC(C)=O)C[C@H](O)[C@]3(C)/C=C3/[C@@H](COC)CC[C@H]3[C@@H](C)[C@H]2O)[C@H](O)[C@@H](OC(C)=O)[C@@H]1O [fusicoccin]
- stabilization factor of 14-3-3 binding with CFTR [10]: 9

B1: 14-3-3ζ (protein)
chain: MDKNELVQKAKLAEQAERYDDMAACMKSVTEQGAELSNEERNLLSVAYKNVVGARRSSWRVVSSIEQKTEGAEKKQQMAREYREKIETELRDICNDVLSLLEKFLIPNASQAESKVFYLKMKGDYYRYLAEVAAGDDKKGIVDQSQQAYQEAFEISKKEMQPTHPIRLGLALNFSVFYYEILNSPEKACSLAKTAFDEAIAELDTLSEESYKDSTLIMQLLRDNLTLWTSDTQGDEAEAGEGGEN
- Kd [11]: 2.06 µM
- Kd [12]: 2.75 µM
- Kd [13]: 5.16 µM

Reference: paper PMC5691318 (Journal of the American Chemical Society, 2017)
